Assays:
radish, wild = experiment: Test D postemergence; assay type: in vivo, Raphanus raphanistrum; details: scale 0 to 100
Outline: (§1)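 Seeds are planted in silt loam and treated preemergence, while parallel plantings in a peat moss/vermiculite medium with starter nutrients receive postemergence sprays at the 1- to 4-leaf stage. All formulations use a non-phytotoxic solvent mixture with surfactant. Plants are kept in a controlled growth environment and rated visually after 14–21 days.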

buckwheat, wild = experiment: Test D preemergence; assay type: in vivo, Polygonum convolvulus; details: for Plant response rating, Buckwheat, Wild: Preemergence, scale 0 to 100
Outline: as §1

wheat, winter = experiment: Test D postemergence; assay type: in vivo, Triticum aestivum; details: scale 0 to 100
Text: (§2) Seeds of plant species selected from bluegrass (annual bluegrass, Poa annua), blackgrass (Alopecurus myosuroides), canarygrass (littleseed canarygrass, Phalaris minor), chickweed (common chickweed, Stellaria media), galium (catchweed bedstraw, Galium aparine), bromegrass, downy (downy bromegrass, Bromus tectorum), field poppy (Papaver rhoeas), field violet (Viola arvensis), foxtail, green (green foxtail, Setaria viridis), deadnettle (henbit deadnettle, Lamium amplexicaule), ryegrass, Italian (Italian ryegrass, Lolium multiflorum), kochia (Kochia scoparia), lambsquarters (Chenopodium album), oilseed rape (Brassica napus), pigweed (redroot pigweed, Amaranthus retroflexus), chamomile (scentless chamomile, Matricaria inodora), speedwell (bird's-eye speedwell, Veronica persica), barley, spring (spring barley, Hordeum vulgare), wheat, spring (spring wheat, Triticum aestivum), buckwheat, wild (wild buckwheat, Polygonum convolvulus), mustard, wild (wild mustard, Sinapis arvensis), oat, wild (wild oat, Avena fatua), radish, wild (wild radish, Raphanus raphanistrum), windgrass (Apera spica-venti), Russian thistle (Salsola kali), barley, winter (winter barley, Hordeum vulgare), and wheat, winter (winter wheat, Triticum aestivum) were planted into a silt loam soil and treated preemergence with test chemicals formulated in a non-phytotoxic solvent mixture which included a surfactant.
(§3) At the same time, these species were planted in pots containing Redi-Earth® planting medium (Scotts Company, 14111 Scottslawn Road, Marysville, Ohio 43041) comprising spaghnum peat moss, vermiculite, wetting agent and starter nutrients and treated with postemergence applications of the test chemicals formulated in the same manner. Plants ranged in height from 2 to 18 cm (1- to 4-leaf stage). Treated plants and controls were maintained in a controlled growth environment for 14 to 21 days after which time all species were compared to controls and visually evaluated. Plant response ratings, summarized in Table D, are based on a scale of 0 to 100 where 0 is no effect and 100 is complete control. A dash (-) response means no test result.

wheat, spring = experiment: Test D postemergence; assay type: in vivo, Triticum aestivum; details: scale 0 to 100
Text: as §2, §3

barley, spring = experiment: Test D postemergence; assay type: in vivo, Hordeum vulgare; details: scale 0 to 100
Text: as §2, §3

barley, winter = experiment: Test D postemergence; assay type: in vivo, Hordeum vulgare; details: scale 0 to 100
Text: as §2, §3

speedwell = experiment: Test D preemergence; assay type: in vivo, Veronica persica; details: for Plant response rating, Speedwell: Preemergence, scale 0 to 100
Outline: as §1

field poppy [1] = experiment: Test D postemergence; assay type: in vivo, Papaver rhoeas; details: scale 0 to 100
Outline: as §1

canarygrass = experiment: Test D preemergence; assay type: in vivo, Phalaris minor; details: for Plant response rating, Canarygrass: Preemergence, scale 0 to 100
Outline: as §1

windgrass [2] = experiment: Test D preemergence; assay type: in vivo, Apera spica-venti; details: for Plant response rating, Windgrass: Preemergence, scale 0 to 100
Text: as §2, §3

field violet = experiment: Test D postemergence; assay type: in vivo, Viola arvensis; details: scale 0 to 100
Outline: as §1

galium = experiment: Test D preemergence; assay type: in vivo, Galium aparine; details: Preemergence, scale 0 to 100
Text: as §2, §3

oilseed rape = experiment: Test D postemergence; assay type: in vivo, Brassica napus; details: scale 0 to 100
Text: as §2, §3

windgrass [3] = experiment: Test D postemergence; assay type: in vivo, Apera spica-venti; details: scale 0 to 100
Text: as §2, §3

ryegrass, Italian = experiment: Test D preemergence; assay type: in vivo, Lolium multiflorum; details: for Plant response rating, Ryegrass, Italian: Preemergence, scale 0 to 100
Text: as §2, §3

field poppy [4] = experiment: Test D preemergence; assay type: in vivo, Papaver rhoeas; details: for Plant response rating, Field Poppy: Preemergence, scale 0 to 100
Outline: as §1

chamomile = experiment: Test D postemergence; assay type: in vivo, Matricaria inodora; details: scale 0 to 100
Text: as §2, §3

[5] = 16 g ai/ha, taken as preemergence

O=C(NC1CC1)c1cc(CCF)n(Cc2ccnc(C(F)(F)F)c2)n1 [Compound 176]
Radish, Wild plant response rating (radish, wild; Postemergence, 31 g ai/ha): 65
Radish, Wild plant response rating (radish, wild; Postemergence, 125 g ai/ha): 65
Radish, Wild plant response rating (radish, wild; postemergence, 62 g ai/ha): 65
Plant response rating (scale 0 to 100), Buckwheat, Wild (buckwheat, wild; [5]): 0
Plant response rating, Buckwheat, Wild (buckwheat, wild; 31 g ai/ha): 15
Plant response rating, Buckwheat, Wild (buckwheat, wild; 62 g ai/ha): 95
Plant response rating, Buckwheat, Wild (buckwheat, wild; 125 g ai/ha): 85
Plant response rating, Wheat, Winter (wheat, winter; Postemergence, 16 g ai/ha): 5
Wheat, Winter plant response rating (wheat, winter; Postemergence, 31 g ai/ha): 5
Wheat, Winter plant response rating (wheat, winter; Postemergence, 125 g ai/ha): 15
Wheat, Winter plant response rating (wheat, winter; postemergence, 62 g ai/ha): 5
Plant response rating, Wheat, Spring (wheat, spring; Postemergence, 16 g ai/ha): 0
Wheat, Spring plant response rating (wheat, spring; Postemergence, 31 g ai/ha): 0
Wheat, Spring plant response rating (wheat, spring; Postemergence, 125 g ai/ha): 0
Wheat, Spring plant response rating (wheat, spring; postemergence, 62 g ai/ha): 0
Barley, Spring plant response rating (barley, spring; Postemergence, 16 g ai/ha): 0
Barley, Spring plant response rating (barley, spring; Postemergence, 31 g ai/ha): 10
Barley, Spring plant response rating (barley, spring; Postemergence, 125 g ai/ha): 15
Barley, Spring plant response rating (barley, spring; postemergence, 62 g ai/ha): 10
Barley, Winter plant response rating (barley, winter; Postemergence, 16 g ai/ha): 0
Barley, Winter plant response rating (barley, winter; Postemergence, 31 g ai/ha): 10
Barley, Winter plant response rating (barley, winter; Postemergence, 125 g ai/ha): 20
Barley, Winter plant response rating (barley, winter; postemergence, 62 g ai/ha): 10
Plant response rating (scale 0 to 100), Speedwell (speedwell; [5]): 15
Plant response rating, Speedwell (speedwell; 62 g ai/ha): 100
Plant response rating, Speedwell (speedwell; 125 g ai/ha): 100
Plant response rating, Field Poppy (field poppy [1]; Postemergence, 16 g ai/ha): 45
Field Poppy plant response rating (field poppy [1]; Postemergence, 31 g ai/ha): 50
Field Poppy plant response rating (field poppy [1]; Postemergence, 125 g ai/ha): 65
Field Poppy plant response rating (field poppy [1]; postemergence, 62 g ai/ha): 50
Plant response rating (scale 0 to 100), Canarygrass (canarygrass; [5]): 0
Plant response rating, Canarygrass (canarygrass; 31 g ai/ha): 5
Plant response rating, Canarygrass (canarygrass; 62 g ai/ha): 25
Plant response rating, Canarygrass (canarygrass; 125 g ai/ha): 35
Plant response rating (scale 0 to 100), Windgrass (windgrass [2]; [5]): 0
Plant response rating, Windgrass (windgrass [2]; 62 g ai/ha): 10
Plant response rating, Windgrass (windgrass [2]; 125 g ai/ha): 40
Plant response rating, Field Violet (field violet; Postemergence, 16 g ai/ha): 35
Field Violet plant response rating (field violet; Postemergence, 31 g ai/ha): 50
Field Violet plant response rating (field violet; Postemergence, 125 g ai/ha): 70
Field Violet plant response rating (field violet; postemergence, 62 g ai/ha): 50
Plant response rating, Galium (galium; 62 g ai/ha): 60
Plant response rating, Galium (galium; 125 g ai/ha): 85
Plant response rating, Oilseed Rape (oilseed rape; Postemergence, 16 g ai/ha): 20
Oilseed Rape plant response rating (oilseed rape; Postemergence, 31 g ai/ha): 40
Oilseed Rape plant response rating (oilseed rape; Postemergence, 125 g ai/ha): 55
Oilseed Rape plant response rating (oilseed rape; postemergence, 62 g ai/ha): 40
Plant response rating, Windgrass (windgrass [3]; Postemergence, 16 g ai/ha): 5
Windgrass plant response rating (windgrass [3]; Postemergence, 31 g ai/ha): 15
Windgrass plant response rating (windgrass [3]; Postemergence, 125 g ai/ha): 25
Windgrass plant response rating (windgrass [3]; postemergence, 62 g ai/ha): 15
Plant response rating (scale 0 to 100), Ryegrass, Italian (ryegrass, Italian; [5]): 0
Plant response rating, Ryegrass, Italian (ryegrass, Italian; 62 g ai/ha): 25
Plant response rating, Ryegrass, Italian (ryegrass, Italian; 125 g ai/ha): 30
Plant response rating (scale 0 to 100), Field Poppy (field poppy [4]; [5]): 10
Plant response rating, Field Poppy (field poppy [4]; 62 g ai/ha): 55
Plant response rating, Field Poppy (field poppy [4]; 125 g ai/ha): 100
Plant response rating, Chamomile (chamomile; Postemergence, 16 g ai/ha): 10
Chamomile plant response rating (chamomile; Postemergence, 31 g ai/ha): 15
Chamomile plant response rating (chamomile; Postemergence, 125 g ai/ha): 35
Chamomile plant response rating (chamomile; postemergence, 62 g ai/ha): 15
